This is an account of results in patent publication US11013726B2 (Arbutus Biopharma Corporation, priority 2016, dated 2021).

The test system of one series is HBV. Put plainly: HBV production assay. The class given is cell-based. Conditions: Hepatitis B virus, 144 h; HepG2.2.15 cells, 6 days, HBV DNA in supernatant by qPCR. The method, then:
HepG2.2.15 cells were maintained and seeded as described above. After administration of test compounds for 6 days, supernatant was collected and clarified by low speed centrifugation. HBV DNA was released from virion in the supernatant by incubating in lysis buffer (Roche, Catalog #07248431001). HBV DNA levels were quantified by qPCR/TaqMan assay. The nucleoside analog Entecavir (ETV) was used as a control to determine inhibition of HBV virion production in the supernatant. Table 4 illustrates EC50 values obtained by the HBV production assay for selected compounds.

Series [1] has as its system HBsAg. Put plainly: HBsAg assay. The class given is cell-based, hepatitis B virus. Conditions: Hepatitis B virus, HepG2.2.15, 144 h, read-out: sAg EC50, μM, HepG2.2.15 cells, day 6. The essentials:
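HepG2.2.15 cells were treated with serially diluted compounds (0.5% DMSO), with medium and compound renewed after 2-3 days. Secreted HBsAg measured at day 6 by chemiluminescence immunoassay; EC50 from dose-response curves. Viability assessed in parallel by CellTiter-Glo.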

The next series has as its system isolated heart. Briefly: Langendorff assay. Conditions: any of the concentrations tested. From the text: (§1) The compounds of the invention disclosed in the present application were screened to evaluate their potency and toxicity profiles. Several compounds having desirable potency and toxicity profiles were identified in these screens.
Series [2] in a line: clearance from blood plasma in dogs. The class given is in vivo.
Excerpt: as §1

Series [3] relates to HBsAg. Put plainly: In vitro combination study, HBsAg CLIA, MacSynergy II. The class given is cell-based, hepatitis B virus. On the set-up: MacSynergy volume: unit not given here. Conditions: for Additive % Inhibition (HBsAg) versus negative control / Avg % Inhibition (HBsAg) versus negative control: LNP-1 0.0025, 0.00079, 0.00025, 7.9E−05, 2.5E−05, 0 μM; for Additive % Inhibition versus negative control / MacSynergy volume: LNP-2 0 μM; for MacSynergy volume: 99.99% confidence interval. The method, then: In vitro combination studies were conducted using the method of Prichard & Shipman, 1990, Antiviral Res. 14(4-5):181-205, and Prichard, et al., MacSynergy II). The HepG2.2.15 cell culture system is a cell line derived from human hepatoblastoma HepG2 cells, that have been stably transfected with the adw2-subtype HBV genome (Sells, et al., 1987, Proc. Natl. Acad. Sci. U.S.A 84:1005-1009). HepG2.2.15 cells secrete Dane-like viral particles, produce HBV DNA, and produce the viral proteins, HBeAg and HBsAg.
Non-limiting examples of HBV RNA destabilizers are Compound A and Compound B. The EC50 values of these agents are shown in Table 12. Although inhibition of HBV DNA, RNA and proteins can be determined in the presence of the compounds of the invention and LNPs (both referred to herein as “agents”), the assay that can quantitatively measure the level of HBsAg was used in this study. To test the agent combinations, HepG2.2.15 (30,000 cells/well) were plated in 96 well tissue-culture treated microtiter plates in DMEM+L-Glutamine medium supplemented with 1% penicillin-streptomycin, 20 μg/mL geneticin (G418), 10% fetal bovine serum, and incubated in a humidified incubator at 37° C. and 5% CO2 overnight. The next day, the cells were replenished with fresh medium followed by the addition of compound of the invention (dissolved in 100% DMSO), and LNP (dissolved in 100% RPMI medium). The agents were added to cells in a checkerboard fashion. The microtiter cell plates were incubated for a total duration of 6 days in a humidified incubator at 37° C. and 5% CO2. On the 3rd day of incubation, the cells were replenished with fresh medium and agents. The serial dilutions spanned concentration ranges respective to the EC50 value of each agent, with the final DMSO concentration of the assay being 0.5%. In addition to combination testing of the agents in a checkerboard fashion, the compound and LNP were also tested alone.
Untreated positive control samples (0.5% DMSO in media) were included on each plate in multiple wells. Following a 6 day-incubation, media was removed from treated cells for use in an HBsAg chemiluminescence immunoassay (CLIA) (Autobio Diagnostics, Cat No. CL0310-2). An HBsAg standard curve was generated to verify that the levels of HBsAg quantification were within the detection limits of the assay. The remaining inhibitor-treated cells were assessed for cytotoxicity by determination of the intracellular adenosine triphosphate (ATP) using a Cell-Titer Glo reagent (Promega) as per manufacturers instructions and by microscopic analysis of the cells throughout the duration of inhibitor treatment. Cell viability was calculated as a percentage of the untreated positive control wells.
The plates were read using an EnVision multimode plate reader (PerkinElmer Model 2104). […] The RLU data from the single agent treated cells were analyzed using XL-Fit module in Microsoft Excel to determine EC50 values using a 4-parameter curve fitting algorithm.

`COc1cc2c(cc1Cl)-c1cc(=O)c(C(=O)O)cn1C(C(C)C)CO2` (stereo not drawn) had an EC50 in the series with HBV of 0.077 µM.

Take `COc1cc2c(cc1Cl)-c1cc(=O)c(C(=O)O)cn1[C@H](C(C)C)CO2`: the EC50 in the series with HBV came out at 0.03 µM.

On to `COCCCOc1cc2c(nc1OC)-c1cc(=O)c(C(=O)O)cn1[C@H](C(C)C)C2` (single isomer, unassigned) [Example 22], for which, in the series with HBsAg [1], the EC50 worked out at 0.002 µM. In addition, the “effect on measured electrocardiogram parameters” value with isolated heart was “no effect on any of the measured electrocardiogram parameters”. The “clearance from blood plasma” value in series [2] is “cleared relatively slowly”.

As for `COCCCOc1cc2c(cc1Cl)-c1cc(=O)c(C(=O)O)cn1[C@H](C(C)C)CO2` [Compound B], the “Additive % Inhibition (HBsAg) versus negative control” value in the series on HBsAg [3] (Compound B 0.0002 μM) is reported as 19.99%; in the series on HBsAg [3] (Compound B 0.0006 μM), 22.24%; in the series on HBsAg [3] (Compound B 0.002 μM) it was 28.73%; with HBsAg [3] (Compound B 0.006 μM) it was 39.16%; in the series on HBsAg [3] (Compound B 0.02 μM), 61.93%; with HBsAg [3] (Compound B 0.06 μM), 80.51%. Also, the figures for the “Additive % Inhibition (HBsAg) versus negative control” value with HBsAg [3] (Compound B 0.20 μM), with HBsAg [3] (Compound B 0.63 μM) and in the series with HBsAg [3] (Compound B 2 μM) were 89.95%, 92.6% and 93.51%, respectively. Also, the “Avg % Inhibition (HBsAg) versus negative control” value in the series with HBsAg [3] (Compound B 0.0002 μM) worked out at 19.99%; in the series with HBsAg [3] (Compound B 0.0006 μM) it was 22.24%; in the series on HBsAg [3] (Compound B 0.002 μM) it was 28.73%; in the series with HBsAg [3] (Compound B 0.006 μM), 39.16%; in the series with HBsAg [3] (Compound B 0.02 μM) it was 61.93%; with HBsAg [3] (Compound B 0.06 μM), 80.51%. Moreover, the “Avg % Inhibition (HBsAg) versus negative control” value is recorded as 89.95% in the series with HBsAg [3] (Compound B 0.20 μM), 92.6% in the series with HBsAg [3] (Compound B 0.63 μM) and 93.51% with HBsAg [3] (Compound B 2 μM). In addition, the “Additive % Inhibition versus negative control” value was found to be 16.15% with HBsAg [3] (Compound B 0.0002 μM); 18.39% in the series with HBsAg [3] (Compound B 0.0006 μM); 21.16% with HBsAg [3] (Compound B 0.002 μM); 31.66% in the series with HBsAg [3] (Compound B 0.006 μM); 51.93% in the series with HBsAg [3] (Compound B 0.02 μM); 74.92% in the series on HBsAg [3] (Compound B 0.06 μM). Moreover, the entries for the “Additive % Inhibition versus negative control” value in the series on HBsAg [3] (Compound B 0.20 μM), in the series with HBsAg [3] (Compound B 0.63 μM) and in the series with HBsAg [3] (Compound B 2 μM) were 86.86%, 91.2% and 92.52%, respectively. In addition, the MacSynergy volume in the series with HBsAg [3] (Compound B 0.0002 μM), with HBsAg [3] (Compound B 0.0006 μM), in the series on HBsAg [3] (Compound B 0.002 μM), with HBsAg [3] (Compound B 0.006 μM), with HBsAg [3] (Compound B 0.02 μM) and in the series on HBsAg [3] (Compound B 0.06 μM) was 0 throughout. Moreover, the MacSynergy volume with HBsAg [3] (Compound B 0.20 μM), in the series on HBsAg [3] (Compound B 0.63 μM) and with HBsAg [3] (Compound B 2 μM) was 0 throughout.

In the series on HBV, `CC(C)(C)C1Cc2cc3c(cc2-c2cc(=O)c(C(=O)O)cn21)OCCCO3` (stereo not drawn) [drawing 612] gave an EC50 of 0.007 µM.

`COCCCOc1cc2c(cc1Cl)-c1cc(=O)c(C(=O)O)cn1[C@H](C(C)C)CO2` [drawing 614] displayed an EC50 with HBV of 0.009 µM.

In the series on HBV, `COCCCOc1cc2c(nc1OC)-c1cc(=O)c(C(=O)O)cn1[C@H](C(C)C)C2` [drawing 615] gave a 50% effective concentration (EC50) of 0.0004 µM.

Turning to `CC(C)[C@@H]1COc2cc(OCCCO)c(Cl)cc2-c2cc(=O)c(C(=O)O)cn21` [drawing 616], in the series with HBV, a half-maximal effect (EC50) was put at 0.007 µM.

In the case of `CC(C)[C@@H]1COc2cc(OCCCCO)c(Cl)cc2-c2cc(=O)c(C(=O)O)cn21` [drawing 617], in the series on HBV, a half-maximal response (EC50) required 0.02 µM.

As to `COCCOc1cc2c(cc1Cl)-c1cc(=O)c(C(=O)O)cn1C(C(C)C)CO2` (stereo not drawn) [drawing 618], in the series with HBV, the EC50 amounted to 0.046 µM.

Regarding `COc1cc2c(nc1OC)-c1cc(=O)c(C(=O)O)cn1C(C(C)C)C2` (stereo not drawn) [drawing 619], the EC50 in the series with HBV stood at 0.002 µM.
